# Measurements published in patent US20050197350A1, “Novel quinoline, tetrahydroquinazoline, and pyrimidine derivatives and methods of treatment related to the use thereof” (TAISHO PHARMACEUTICAL CO., LTD., priority 2003, published 2005).
# Test system: MCH receptors
# Test: MCH receptor activity class (method not given)
# Conditions: activity class 1-3: percent of control at 10^-7 M or IC50
row,Structure (SMILES),class
1,CN(C)c1ccnc(N[C@H]2CC[C@@H](CNCCCCCCc3ccccc3)CC2)n1 [compound 1526],3 (Class 3 The value of percent of control at 10^−7 M was more than 60% or the value of IC50 was more than 200 nM.)
2,Cc1cc(C)c(CCNC[C@H]2CC[C@@H](Nc3nccc(N(C)C)n3)CC2)c(C)c1 [compound 1527],3 (Class 3 The value of percent of control at 10^−7 M was more than 60% or the value of IC50 was more than 200 nM.)
3,CN(C)c1ccnc(N[C@H]2CC[C@@H](CNCCCCCCCCc3ccccc3)CC2)n1 [compound 1528],3 (Class 3 The value of percent of control at 10^−7 M was more than 60% or the value of IC50 was more than 200 nM.)
4,CN(C)c1ccnc(N[C@H]2CC[C@@H](CNCCc3ccc(C(C)(C)C)cc3)CC2)n1 [compound 1529],3 (Class 3 The value of percent of control at 10^−7 M was more than 60% or the value of IC50 was more than 200 nM.)
5,CN(C)c1ccnc(N[C@H]2CC[C@@H](CNCCCC#Cc3ccccc3)CC2)n1 [compound 1530],3 (Class 3 The value of percent of control at 10^−7 M was more than 60% or the value of IC50 was more than 200 nM.)
6,COc1ccccc1CCNC[C@H]1CC[C@@H](Nc2nccc(N(C)C)n2)CC1 [compound 1531],3 (Class 3 The value of percent of control at 10^−7 M was more than 60% or the value of IC50 was more than 200 nM.)
7,CN(C)c1ccnc(N[C@H]2CC[C@@H](CNCCCOc3ccccc3)CC2)n1 [compound 1532],3 (Class 3 The value of percent of control at 10^−7 M was more than 60% or the value of IC50 was more than 200 nM.)
8,CN(C)c1ccnc(N[C@H]2CC[C@@H](CNCc3c(F)c(F)cc(F)c3F)CC2)n1 [compound 1533],3 (Class 3 The value of percent of control at 10^−7 M was more than 60% or the value of IC50 was more than 200 nM.)
9,CN(C)c1ccnc(N[C@H]2CC[C@@H](CNCc3cc(Cl)ccc3Cl)CC2)n1 [compound 1534],3 (Class 3 The value of percent of control at 10^−7 M was more than 60% or the value of IC50 was more than 200 nM.)
10,COc1ccc(Cl)cc1CNC[C@H]1CC[C@@H](Nc2nccc(N(C)C)n2)CC1 [compound 1535],3 (Class 3 The value of percent of control at 10^−7 M was more than 60% or the value of IC50 was more than 200 nM.)
11,COc1cc(Cl)ccc1CNC[C@H]1CC[C@@H](Nc2nccc(N(C)C)n2)CC1 [compound 1536],3 (Class 3 The value of percent of control at 10^−7 M was more than 60% or the value of IC50 was more than 200 nM.)
12,Cc1ccc(CNC[C@H]2CC[C@@H](Nc3nccc(N(C)C)n3)CC2)cc1I [compound 1537],3 (Class 3 The value of percent of control at 10^−7 M was more than 60% or the value of IC50 was more than 200 nM.)
13,C[C@@H](CNC[C@H]1CC[C@@H](Nc2nccc(N(C)C)n2)CC1)N(Cc1ccccc1)Cc1ccccc1 [compound 1538],3 (Class 3 The value of percent of control at 10^−7 M was more than 60% or the value of IC50 was more than 200 nM.)
14,CN(C)c1cc(N[C@H]2CC[C@@H](NC(=O)OCCOCc3ccccc3)CC2)nc2ccccc12 [compound 1539],3 (Class 3 The value of percent of control at 10^−7 M was more than 60% or the value of IC50 was more than 200 nM.)
15,CN(C)c1cc(N[C@H]2CC[C@@H](NC(=O)OCC(C)(C)C)CC2)nc2ccccc12 [compound 1540],3 (Class 3 The value of percent of control at 10^−7 M was more than 60% or the value of IC50 was more than 200 nM.)
16,"COc1cc(COC(=O)NC2CCC(Nc3cc(N(C)C)c4ccccc4n3)CC2)c([N+](=O)[O-])cc1OC (stereo not shown) [compound 1541, “[4-(4-Dimethylamino-quinolin-2-ylamino)-cyclohexyl]-carbamic acid 4,5-dimethoxy-2-nitro-benzyl ester]",2 (Class 2: The value of percent of control at 10^−7 M was from 40% to 60% or the value of IC′50 was from 50 nM to 200 nM.)

row,Structure (SMILES),class
1,CN(C)c1cc(N[C@H]2CC[C@@H](NC(=O)Oc3cccc(C(F)(F)F)c3)CC2)nc2ccccc12 [compound 1542],3 (Class 3 The value of percent of control at 10^−7 M was more than 60% or the value of IC50 was more than 200 nM.)
2,CN(C)c1cc(N[C@H]2CC[C@@H](NC(=O)Oc3ccc(Br)cc3)CC2)nc2ccccc12 [compound 1543],3 (Class 3 The value of percent of control at 10^−7 M was more than 60% or the value of IC50 was more than 200 nM.)
3,COc1ccccc1OC(=O)N[C@H]1CC[C@@H](Nc2cc(N(C)C)c3ccccc3n2)CC1 [compound 1544],3 (Class 3 The value of percent of control at 10^−7 M was more than 60% or the value of IC50 was more than 200 nM.)
4,COCCOC(=O)N[C@H]1CC[C@@H](Nc2cc(N(C)C)c3ccccc3n2)CC1 [compound 1545],3 (Class 3 The value of percent of control at 10^−7 M was more than 60% or the value of IC50 was more than 200 nM.)
5,CCCCCCCCOC(=O)N[C@H]1CC[C@@H](Nc2cc(N(C)C)c3ccccc3n2)CC1 [compound 1546],3 (Class 3 The value of percent of control at 10^−7 M was more than 60% or the value of IC50 was more than 200 nM.)
6,CCOC(=O)N[C@H]1CC[C@@H](Nc2cc(N(C)C)c3ccccc3n2)CC1 [compound 1547],3 (Class 3 The value of percent of control at 10^−7 M was more than 60% or the value of IC50 was more than 200 nM.)
7,CN(C)c1cc(NC2CCC(NC(=O)OCc3ccc([N+](=O)[O-])cc3)CC2)nc2ccccc12 (stereo not shown) [compound 1548],3 (Class 3 The value of percent of control at 10^−7 M was more than 60% or the value of IC50 was more than 200 nM.)
8,CN(C)c1cc(N[C@H]2CC[C@@H](NC(=O)Oc3ccc4ccccc4c3)CC2)nc2ccccc12 [compound 1549],3 (Class 3 The value of percent of control at 10^−7 M was more than 60% or the value of IC50 was more than 200 nM.)
9,C=CCOC(=O)N[C@H]1CC[C@@H](Nc2cc(N(C)C)c3ccccc3n2)CC1 [compound 1550],3 (Class 3 The value of percent of control at 10^−7 M was more than 60% or the value of IC50 was more than 200 nM.)
10,CN(C)c1cc(NC2CCC(NC(=O)OCc3ccccc3)CC2)nc2ccccc12 (stereo not shown) [compound 1551],3 (Class 3 The value of percent of control at 10^−7 M was more than 60% or the value of IC50 was more than 200 nM.)
11,CN(C)c1cc(N[C@H]2CC[C@@H](NC(=O)Oc3ccccc3)CC2)nc2ccccc12 [compound 1552],3 (Class 3 The value of percent of control at 10^−7 M was more than 60% or the value of IC50 was more than 200 nM.)
12,CC(C)[C@@H]1CC[C@@H](C)C[C@H]1OC(=O)N[C@H]1CC[C@@H](Nc2cc(N(C)C)c3ccccc3n2)CC1 [compound 1553],3 (Class 3 The value of percent of control at 10^−7 M was more than 60% or the value of IC50 was more than 200 nM.)
13,Cc1ccc(OC(=O)N[C@H]2CC[C@@H](Nc3cc(N(C)C)c4ccccc4n3)CC2)cc1 [compound 1554],3 (Class 3 The value of percent of control at 10^−7 M was more than 60% or the value of IC50 was more than 200 nM.)
14,COC(=O)N[C@H]1CC[C@@H](Nc2cc(N(C)C)c3ccccc3n2)CC1 [compound 1555],3 (Class 3 The value of percent of control at 10^−7 M was more than 60% or the value of IC50 was more than 200 nM.)
15,CN(C)c1cc(N[C@H]2CC[C@@H](NC(=O)OCc3ccccc3Cl)CC2)nc2ccccc12 [compound 1556],3 (Class 3 The value of percent of control at 10^−7 M was more than 60% or the value of IC50 was more than 200 nM.)
